The record followed here is patent US5753661A, “Fused benzo compounds containing a nitrogen heterocycle for the treatment of central nervous system disorders” (priority 1992, dated 1998).

The target of this assay is T1, 5-HT1A receptor (Rattus norvegicus, UniProt P19327).
T1 sequence (P19327 1-422): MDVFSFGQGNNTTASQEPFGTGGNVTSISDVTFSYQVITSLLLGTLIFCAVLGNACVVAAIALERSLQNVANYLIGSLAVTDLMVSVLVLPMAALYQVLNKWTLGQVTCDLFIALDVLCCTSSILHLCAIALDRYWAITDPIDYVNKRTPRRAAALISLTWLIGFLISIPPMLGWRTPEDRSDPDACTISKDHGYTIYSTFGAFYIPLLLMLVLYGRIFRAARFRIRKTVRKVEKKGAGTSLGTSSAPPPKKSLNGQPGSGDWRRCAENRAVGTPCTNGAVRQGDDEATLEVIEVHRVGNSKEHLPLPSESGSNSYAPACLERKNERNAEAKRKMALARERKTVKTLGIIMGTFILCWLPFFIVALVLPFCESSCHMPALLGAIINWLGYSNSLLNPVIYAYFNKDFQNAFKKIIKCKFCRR
Put plainly: Inhibition of 3H-8-OH-DPAT binding to serotonin 5-HT1A receptors in rat brain in vitro. Also on record: 5-HT1A receptors in membranes from rat brain minus cerebellum; from tissue; host or cells: rat brain minus cerebellum, membranes. The settings on record: 3H-8-OH-DPAT 1 nM; membranes from rat brain minus cerebellum; read-out: IC50, 3H 8-OH-DPAT binding. As for the experimental part: Inhibition of ^3 H-8-OH-DPAT Binding to Serotonin 5-HT1A Receptors in Rat Brain in vitro.
By this method the inhibition by drugs of the binding of the 5-HT1A agonist 3H-8-OH-DPAT (1 nM) to 5-HT1A receptors in membranes from rat brain minus cerebellum is determined in vitro . Accordingly, this is a test for affinity for the 5-HT1A receptor. The assay was performed as described by Hyttel et al., Drug Dev. Res. 1988, 15, 389-404.
Regarding `CS(=O)(=O)CCCN1CCN(c2cccc3c2OCC3)CC1` [Compound 1d, 1-(2,3-Dihydrobenzofuran-7-yl)-4-(3-methylsulfonyl-1-propyl)piperazine], the IC50 is 0.19 µM. For `O=C1N(CCN2CCN(c3cccc4ccsc34)CC2)CCN1C1CCCC1` [Compound 2aa, 1-[2-[4-Benzo[b]thiophen-7-yl-1-piperazinyl]ethyl]-3-cyclopentyl-2-imidazolidinone] the value was 0.011 µM.

Consider `CCOC(=O)c1cc2c(N3CCN(CCN4CCN(C5CCCC5)C4=O)CC3)cccc2o1` [Compound 2cc, Ethyl [4-[4-[2-(3-cyclopentyl-2-imidazolidinon-1-yl)ethyl]-1-piperazinyl]-2-benzofuranyl] carboxylate], for which the IC50 came to 0.083 µM. As for `CC1(C)Cc2cccc(N3CCN(CCCCN4CCN(c5ccc(F)cc5)C4=O)CC3)c2O1` [Compound 2dd, 1-[4-[4-(2,3-Dihydro-2,2-dimethylbenzofuran-7-yl)-1-piperazinyl]-1-butyl]-3-(4-fluorophenyl)-2-imidazolidinone], the figure is 0.0005 µM; as for `CC(C)(C)N1CCN(CCN2CCN(c3cccc4c3OCCO4)CC2)C1=O` [Compound 2ee], 0.043 µM.

Take `CC1(C)Cc2cccc(N3CCN(CCCN4CCN(c5ccccc5)C4=O)CC3)c2O1` [Compound 2ff, 1-[3-[4-(2,3-Dihydro-2,2-dimethylbenzofuran-7-yl)-1-piperazinyl]-1-propyl]-3-phenyl-2-imidazolidinone]: the IC50 was 0.0066 µM. As for `CC1(C)Cc2cccc(N3CCN(CCCCN4CCN(C56CC7CC(CC(C7)C5)C6)C4=O)CC3)c2O1` [Compound 2gg, 1-Adamantyl-3-[4-[4-(2,3-dihydro-2,2-dimethylbenzofuran-7-yl)-1-piperazinyl]-1-butyl]-2-imidazolidinone], the figure is 0.0028 µM. For `O=C1N(CCN2CCN(c3cccc4nsnc34)CC2)CCN1c1ccccc1` [Compound 2h, 4-[4-[2-(3-Phenylimidazolidin-2-on-1-yl)ethyl]-1-piperazinyl]-2,1,3-benzothiadiazole] the value was 0.028 µM; for `O=C1N(CCCCN2CCN(c3cc(Cl)cc4cc(-c5ccccc5)oc34)CC2)CCN1C1CCCCC1` [Compound 2hh, 1-[4-[4-(5-Chloro-2-phenylbenzofuran-7-yl)-1-piperazinyl]-1-butyl]-3-cyclohexyl-2-imidazolidinone], 0.13 µM; for `O=C1N(CCN2CCN(c3cccc4c3OCC4)CC2)CCN1c1ccc(F)cc1` [Compound 2i, 1-[2-[4-(2,3-Dihydrobenzofuran-7-yl)-1-piperazinyl]ethyl]-3-(4-fluorophenyl)-2-imidazolidinone], 0.03 µM.

With `O=C1N(CCN2CCN(c3cc(Cl)cc4cc(-c5ccccc5)oc34)CC2)CCN1C1CCCC1` [Compound 2ii, 1-[2-[4-(5-Chloro-2-phenylbenzofuran-7-yl)-1-piperazinyl]ethyl]-3-cyclopentyl-2-imidazolidinone], the IC50 was 0.3 µM. As for `CCOC(=O)c1cc2cccc(N3CCN(CCN4CCN(c5ccccc5)C4=O)CC3)c2[nH]1` [Compound 2j, Ethyl 7-[4-[2-(3-phenyl-2-imidazoidin-2-on-1-yl)ethyl]-1-piperazinyl]-2-indolyl carboxylate], the figure is 0.053 µM; as for `CC1(C)Cc2cccc(N3CCN(CCCCN4CCN(c5cccc6ccccc56)C4=O)CC3)c2O1` [Compound 2jj, 1-[4-[4-(2,3-Dihydro-2,2-dimethylbenzofuran-7-yl)-1-piperazinyl]-1-butyl]-3-(1-naphtyl)-2-imidazolidinone], 0.0011 µM; as for `O=C1N(CCN2CCN(c3cccc4ccccc34)CC2)CCN1c1ccccc1` [Compound 2k, 1-[2-[4-(1-Naphtyl)-1-piperazinyl]ethyl]-3-phenyl-2-imidazolidinone], 0.015 µM. In the case of `CC1(C)Cc2cccc(N3CCN(CCCN4CCN(C5CCCCC5)C4=O)CC3)c2O1` [Compound 2kk, 1-Cyclohexyl-3-[3-[4-(2,3-dihydro-2,2-dimethylbenzofuran-7-yl)-1-piperazinyl]-1-propyl]-2-imidazolidinone], the IC50 is 0.0057 µM. For `CCN1CCN(CCN2CCN(c3cccc4c3OCCO4)CC2)C1=O` [Compound 2l, 1-[2-[4-(1,4-Benzodioxan-5-yl)-1-piperazinyl]ethyl]-3ethyl-2-imidazolidinone] the value was 0.072 µM. `CC1(C)Cc2cc(F)cc(N3CCN(CCCCN4CCN(c5ccc(F)cc5)C4=O)CC3)c2O1` [Compound 2ll, 1-[4-[4-(2,3-Dihydro-2,2-dimethyl-5-fluorobenzofuran-7-yl)-1-piperazinyl]-1-butyl]-3-(4-fluorophenyl)-2-imidazolidinone]: the IC50 was found to be 0.01 µM. Consider `CC1(C)Cc2cc(F)cc(N3CCN(CCCCN4CCN(C5CCCCC5)C4=O)CC3)c2O1` [Compound 2mm], for which the IC50 is 0.0017 µM.

As for `CC1(C)Cc2cccc(N3CCN(CCCCCCN4CCN(C5CCCC5)C4=O)CC3)c2O1` [Compound 2nn, 1-Cyclopentyl-3-[6-[4-(2,3-dihydro-2,2-dimethylbenzofuran-7-yl)-1-piperazinyl]-1-hexyl]-2-imidazolidinone], the IC50 turned out to be 0.0054 µM. As for `CC1(C)COc2c(N3CCN(CCN4CCN(C5CCCC5)C4=O)CC3)cc(Cl)cc21` [Compound 2oo], the figure is 0.044 µM.

Turning to `CC1(C)COc2c(N3CCN(CCCCCCN4CCN(C5CCCC5)C4=O)CC3)cc(Cl)cc21` [Compound 2pp], the IC50 is 0.02 µM. For `O=C1N(CCN2CCN(c3cccc4c3OCCO4)CC2)CCN1C12CC3CC(CC(C3)C1)C2` [Compound 2q, 1-Adamantyl-3-[2-[4-(1,4-benzodioxan-5-yl)-1-piperazinyl]ethyl]-2-imidazolidinone] the value was 0.013 µM; for `CC1(C)Cc2c(N3CCN(CCCN4CCN(C5CCCCC5)C4=O)CC3)ccc(Cl)c2O1` [Compound 2qq], 0.3 µM; for `O=C1N(CCN2CCN(c3cccc4occc34)CC2)CCN1c1ccccc1` [Compound 2r, 1-[2-(4-Benzofuran-4-yl-1-piperazinyl)ethyl]-3-phenyl-2-imidazolidinone], 0.023 µM. For `O=C1N(CCN2CCN(c3cccc4occc34)CC2)CCN1C1CCCC1` [Compound 2s, 1-[2-(4-Benzofuran-4-yl-1-piperazinyl)ethyl]-3-cyclopentyl-2-imidazolidinone] the value was 0.032 µM; for `O=C1N(CCN2CCN(c3cccc4ccsc34)CC2)CCN1c1ccccc1` [Compound 2t, 1-[2-(4-Benzo[b]thiophen-7-yl-1-piperazinyl)ethyl]-3-phenyl-2-imidazolidinone], 0.015 µM; for `O=C1N(CCN2CCN(c3cccc4cc[nH]c34)CC2)CCN1C1CCCC1` [Compound 2u, 1-Cyclopentyl-3-[2-[4-(7-indolyl)-1-piperazinyl]ethyl]-2-imidazolidinone], 0.11 µM. For `O=C1N(CCN2CCN(c3cccc4cc[nH]c34)CC2)CCN1c1ccccc1` [Compound 2v, 1-[2-[4-(7-Indolyl)-1-piperazinyl]ethyl]-3-phenyl-2-imidazolidinone], the IC50 amounted to 0.071 µM.

As to `O=C1N(CCN2CCN(c3cccc4cnsc34)CC2)CCN1c1ccccc1` [Compound 2x, 1-[2-[4-(1,2-Benzisothiazol-7-yl)-1-piperazinyl]ethyl]-3-phenyl-2-imidazolidinone], the IC50 was 0.075 µM. For `O=C1N(CCN2CCN(c3cccc4[nH]ccc34)CC2)CCN1c1ccccc1` [Compound 2z, 1-[2-[4-(4-Indolyl)-1-piperazinyl]ethyl]-3-phenyl-2-imidazolidinone] the value was 0.034 µM; for `O=C1N(CCCN2CCN(c3cccc4c3OCCO4)CC2)CCN1Cc1ccccc1` [Compound 4a, 1-[3-[4-(1,4-Benzodioxan-5-yl)-1-piperazinyl]-1-propyl]-3-benzyl-2-imidazolidinone], 0.018 µM; for `CCN1CCN(CCCN2CCN(c3cccc4c3OCCO4)CC2)C1=O` [Compound 4b, 1-[3-[4-(1,4-Benzodioxan-5-yl)-1-piperazinyl]-1-propyl]-3-ethyl-2-imidazolidinone], 0.04 µM. For `O=C1N(CCCN2CCN(c3cccc4c3OCCO4)CC2)CCN1C1CCCCC1` [Compound 4c, 1-[3-[4-(1,4-Benzodioxan-5-yl)-1-piperazinyl]-1-propyl]-3-cyclohexyl-2-imidazolidinone] the value was 0.019 µM; for `O=c1n(CCN2CCN(c3cccc4c3OCCO4)CC2)ccn1-c1ccccc1` [Compound 5b, 1-[3-[4-(1,4-Benzodioxan-5-yl)-1-piperazinyl]-ethyl]-1,3-dihydro-3-phenyl-2-imidazolone], 0.012 µM.

On to `O=S(=O)(CCN1CCN(c2cccc3c2OCC3)CC1)C1CCCCC1` [Compound 6a, 1-(2-Cyclohexylsulfonyl-1-ethyl)-4-(2,3-dihydrobenzofuran-7-yl)piperazine], for which the 50% inhibitory concentration (IC50) was found to be 0.22 µM.

As for `O=C1N(CCN2CCN(c3cccc4c3ccn4-c3ccc(F)cc3)CC2)CCN1C1CCCC1` [Compound 7a, 1-Cyclopentyl-3-[2-[4-[1-(4-fluorophenyl)-4-indolyl]-1-piperazinyl]ethyl]-2-imidazolidinone], the half-inhibitory concentration (IC50) was found to be 51 µM.
